Data: patent US7491821B2, “Inhibitors of P2X3” (Roche Palo Alto LLC, priority 2005, dated 2009)
Counter-ions that a name gives are not always drawn.

Structure (SMILES) | melting point
CC(=O)N1CCN(C[C@@H](C)NC(=O)c2cc3c(-c4ccccc4)nn(C)c3s2)CC1 (as salt: salt) [compound 93, (R)-1-methyl-3-phenyl-1H-thieno[2,3-c]pyrazole-5-carboxylic acid [2-(4-acetyl-piperazin-1-yl)-1-methyl-ethyl]-amide] | 133.9 to 139.9 °C
CC(=O)N1CCN(C[C@H](C)NC(=O)c2cc3c(-c4ccccc4)nn(C)c3s2)CC1 (as salt: salt) [compound 94, (S)-1-methyl-3-phenyl-1H-thieno[2,3-c]pyrazole-5-carboxylic acid [2-(4-acetyl-piperazin-1-yl)-1-methyl-ethyl]-amide] | 133.5 to 140.1 °C
